# Assays:
# IL-1β [1] = assay: Human IL-1β release ELISA, HAEC with or without CD40 ligation; assay type: cell-based
# Method: To examine if endothelial CD40 would be functional, cultured HAEC were plated at 5×10^4 cells/well in 6-well tissue culture plates (Nunc-Immuno™ Plate, Denmark) and incubated at 37° C. with human CD40L recombinant protein (CD40L, 0.5 ug/mL, kindly provided by Dr. Jean-Yves Bonnefoy, Glaxo Institute for Molecular Biology, Geneva) in fresh cultured media for eight hours, and cell-free supernatants were collected for IL-1β release assay. The assay for human IL-1β was performed in strict accordance with the manufacturer's instruction using the human Predicta™ IL-1β Kit (Genzyme). Absorbance at 450 nm was measured using a microplate spectrophotometer (SPECTRAmax 250, Molecular Devices, Sunnyvale, Calif.).
# A second group of cells was subjected to these same treatments and incubated with CD40L ([…]) for eight hours following the initial 48 hour treatment period. IL-1β release was then quantified using a human IL-1β ELISA kit as described in materials and methods.
# IFN-γR = IFN-γR expression in HAEC, cell-ELISA (CELISA) and Western blotting; assay type: cell-based, human
# Method: In vitro measurement of Aβ-induced changes in expression of the inflammatory cell-surface molecules CD40 and […] in cultured HAEC and HASM cells was performed using a slightly modified ABC-based cell-ELISA (CELISA). […] After PBS washes, 4% neutral formalin solution (Sigma) was used for fixation of the cells. Following quenching of the endogenous peroxidase activity with 3% H2O2 and routine blocking of non-specific binding, the biotinylated specific secondary antibodies against the primary antibodies (goat anti-mouse or anti-rabbit IgG) were applied. The combination of EXTRAVIDIN® Proxidase and the subsequent color reaction was performed strictly according to the manufacturer's instructions in the EXTRAVIDIN® Peroxidase Staining Kit (Sigma). The absorbance of 405 nm was then measured using a microplate reader (SPECTRAmax 250, Molecular Devices). The optical density (O.D.) value for the wells in the absence of the primary antibody for each group was considered as background and subtracted as the blank. In addition, stimulation with IFN-γ for CD40 was included as a positive control in the appropriate plate. Since CD45 is not expressed by endothelial or smooth muscle cells, the assays for expression of CD45 in these Aβ-treated cells were used as negative controls throughout the experiment. In addition, to evaluate the degree of cell death or proliferation in the Aβ-treated, cells, parallel experiments were performed using the MTS (3-(4,5-dimethylthiazol-2-yl)-5-(3-carboxymethoxyphenyl)-2-(4-sulfophenyl)-2H-tetrazolium) cell-proliferation kit (Promega).
# (§1) Activation of CD40 signalling can be achieved by stimulation with either CD40L or certain anti-CD40 mAbs. Since synthetic CD40L is not commercially available, one of the anti-CD40 mAbs (clone 3/23), which has been reported to activate CD40 signalling, was used to mimic the effect of interaction of CD40-CD40L. All Aβ-treated cells were incubated with 1 μg/ml anti-CD40 mAb […]) for four hours followed by CELISA.
# The total protein was estimated using the Bio-Rad protein assay. An aliquot corresponding to 100 μg of total protein of each sample was separated by SDS/PAGE (polyacrylamide gel electrophoresis) and transferred electrophoretically to PVDF filters. Non-specific binding of antibody was blocked with 5% non-fat dry milk, in 20 mM Tris/HCl, pH 7.5/150 mM NaCl/0.1% Triton X-100. Immunoblotting was carried out with the appropriate antibody followed by alkaline phosphatase-conjugated secondary anti-immunoglobulin antibodies. These were then developed by the chemiluminescence method (Bio-Rad).
# IFN-γ = IFN-γ secretion from HAEC, ELISA; assay type: cell-based, human; conditions: 24 hours
# Method: (§2) The assay for either IL-1β or IFN-γ was performed in strict accordance with the manufacturer's instructions for the respective assay kits.
# as §1
# (§3) The resulting cell culture media were assayed for IL-1β or IFN-γ using ELISA. […] The lowest effective concentration was determined to be 100 nM for IFN-γ ([…]). The lowest effective concentration was determined to be 100 nM for IFN-γ (p<0.01) and 1 μM for IL-1β (p<0.01).
# CD40 [2] = assay: CD40 expression in primary cultured microglia; assay type: cell-based, mice; conditions: microglia from control littermates exposed to exogenous peptide, vs Aβ40-1 or sAPPα-695
# TNF-α = TNF-α release from cultured microglia, TNF-α ELISA; assay type: cell-based, mice; conditions: 500 nM, primary cultured microglia
# cortical neurons = assay: Cortical neurons incubated with treated N9 microglia, photomicrographs; assay type: cell-based, murine; conditions: Aβ1-42 250 nM, CD40L 0.5 μg/ml
# IL-1β [3] = assay: IL-1β secretion from HAEC, ELISA; assay type: cell-based, human; conditions: 24 hours
# Method: as §2, §3
# [4] = tested on: primary cultured cortical neurons; assay: Primary cultured microglia-mediated neuronal cell injury (micrographs, 51Cr release, LDH release); assay type: cell-based, mice; conditions: primary cultured microglia with cortical neurons
# Text: CD45 positive cells (brown) are microglia, while neurofilament L-staining cells (red) are neurons. […] Results shown are from one of three independent experiments with similar results; FIG. 2E is a graph showing primary cultured microglia-mediated neuronal cell injury as evidenced by ^51Cr release. Data are reported as mean ^51Cr release values±1 SEM and n=9 for each condition presented. […] N=9 for each condition presented.
# Having shown that Aβ peptides activate microglia through the CD40 pathway, it was then investigated whether activation of Aβ-pretreated microglia by ligation of CD40 could mediate neuronal cell injury (23,24).
# CD40 [5] = assay: CD40 cell-surface expression on HAEC, flow cytometry; assay type: cell-based, human; conditions: Aβ 500 nM, IFN-γ 10 U/mL; vs control peptide or Aβ-free
# Method: Cultured HAEC were treated as described above. […] Cells were analyzed on a FACScan flow cytometer (Becton-Dickinson, Mountain View, Calif.) using LYSIS-II software. CD40-expressing cells are defined as percentage of CD40-staining cells minus the percentage of IgG1-staining cells.
# CD40 expression between control peptide-treated and Aβ-free AEC was relatively similar.
# HAEC = assay: Cytotoxicity in HAEC, LDH release assay; assay type: cell-based, human; conditions: 500 nM, 48 hours
# Method: Previous reports have shown that overexpression of amyloid precursor protein or exogenous addition of Aβ peptides can have cytotoxic effects on cultured endothelial cells.
# In order to determine if ligation of endothelial CD40 could result in production of pro-inflammatory cytokines, IL-1β was measured following treatment with IFN-γ or Aβ peptides. […] There was not observe a significant induction of endothelial cell death by LDH release assay between treatment groups during the time course examined by IL-1β release assay (by One-way ANOVA, F(6,41)=0.322, p=0.921), supporting the hypothesis that stimulation of the CD40 pathway in endothelial cells results in an early pro-inflammatory cascade which later promotes cell injury, rather than induce cytotoxicity acutely.
substance,measurement,setting,value
"Aβ1-42: amyloid β peptide 1-42, freshly solubilized",IL-1β release following CD40 ligation,"IL-1β [1]; 48 hour pre-treatment, then CD40L for eight hours",synergistic effect
same,IL-1β release in the absence of CD40L stimulation,"IL-1β [1]; Aβ 500 nM, IFN-γ 10 U/mL, 48 hours",not sufficient to elicit IL-1β
same,Aβ-induced IFN-γR expression in HAEC on CD40 ligation,"IFN-γR; 1 μg/ml mAb (3/23), four hours",significant effect
same,IFN-γR expression in HAEC,IFN-γR; 48 hours,preferentially activates endothelial cells rather than smooth muscle cells
same,lowest effective concentration for IFN-γ secretion,IFN-γ,100 nM
same,"IFN-γ secretion, dose dependence",IFN-γ; increasing concentrations,increases the secretion of IL-1β and IFN-γ in a dose-dependent manner
same,CD40 expression in primary cultured microglia,CD40 [2],CD40 expression is increased
same,"TNF-α release, peptide alone",TNF-α,does not induce TNF-α release
same,change in cortical neurons,cortical neurons,no change in cortical neurons
same,lowest effective concentration for IL-1β secretion,IL-1β [3],1 µM
same,"IL-1β secretion, dose dependence",IL-1β [3]; increasing concentrations,increases the secretion of IL-1β and IFN-γ in a dose-dependent manner
same,neuronal degeneration / injury in micrographs,[4],not detectable
same,"CD40 cell-surface expression, flow cytometry",CD40 [5],significantly induce CD40 expression
same,"cell injury, LDH release",HAEC,no significant induction of cell injury

# Reference: patent US6787318B1, “Assay for evaluating the therapeutic effectiveness of agents in reducing Alzheimer's disease pathology” (Roskamp Research Institute, LLC, priority 1999, dated 2004)
